Columns and labels:
caspase-3 [1] = biological target: T1, caspase-3 (Homo sapiens, UniProt P42574); assay: Caspase-3 detection with z-DEVD-coelenterazine-h and Renilla luciferase; assay type: biochemical; settings: 25 μM substrate, 25 U/ml caspase-3, 3.25 ug/ml Renilla luciferase, measured over 110 minutes
T1 sequence (P42574 29-175 limits assumed): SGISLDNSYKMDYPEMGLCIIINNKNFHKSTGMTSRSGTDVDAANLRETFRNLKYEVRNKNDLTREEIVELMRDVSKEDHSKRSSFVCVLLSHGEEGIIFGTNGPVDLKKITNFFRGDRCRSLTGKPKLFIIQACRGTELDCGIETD
T1 sequence (P42574 176-277 limits assumed): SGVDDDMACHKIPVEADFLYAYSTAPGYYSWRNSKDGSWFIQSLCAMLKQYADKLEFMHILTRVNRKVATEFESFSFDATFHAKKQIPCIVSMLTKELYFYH
Description: Compound 21 (50 μM) was combined with Renilla luciferase (6.5 μg/ml, Renilla-GST fusion) in 50 mM HEPES buffer pH 7.2, 2 mM DTT, and 0.5% CHAPS and incubated for 20 minutes to remove any free coelenterazine derivatives that may be substrates for Renilla luciferase. Purified caspase-3 enzyme (50 U/ml) or buffer control was added in a 1:1 volume ratio for final concentrations of 25 μM Z-DEVD-coelenterazine h derivative substrate, 25 U/ml caspase-3 and 3.25 ug/ml luciferase. Luminescence was measured over 110 minutes.

caspase-3 [2] = biological target: T1, caspase-3; assay: Caspase 3 assay using Oplophorus luciferase variant 9B8 opt; assay type: biochemical; settings: 23.5 μM substrate, OgLuc 9B8 opt lysate, with caspase-3
Description: (§1) An Oplophorus luciferase (OgLuc) variant, 9B8 opt, was used in a bioluminescent assay using a pro-coelenterazine substrate comprising the DEVD caspase-3 cleavage sequence. Purified caspase-3 enzyme was mixed with an E. coli lysate sample expressing the variant 9B8 opt, which was purified using the HALOLINK™ Resin (Promega Corp.) according to manufacturer's instructions, and diluted 10-fold in a buffer containing 100 mM MES pH 6.0, 1 mM CDTA, 150 mM KCl, 35 mM thiourea, 2 mM DTT, 0.25% TERGITOL® NP-9 (v/v), 0.025% MAZU®, with or without 23.5 μM z-DEVD-coelenterazine-h in 100 mM HEPES pH 7.5. The caspase-3 enzyme was incubated with the lysate sample for 3 hrs at room temperature, and luminescence detected on a Turner MODULUS™ luminometer at various time points. A sample containing only bacterial lysate and a sample containing only caspase-3 were used as controls. Three replicates were used.

caspase-3 [3] = assay: as above; assay type: biochemical; settings: 23.5 μM substrate, OgLuc 9B8 opt lysate, no caspase-3
Description: as §1

Jurkat cells = assay: Measuring metabolically active cells using quinone coelenterazine derivatives; assay type: cell-based; settings: two-fold serial dilutions of Jurkat cells; stocks 50 μM (40) and 100 μM (50); 30 minutes at 37° C.; Oplophorus luciferase detection reagent
From the text: Viable cells maintain a metabolically active state that is inevitably lost when cells are damaged. Upon entering the living cells, the quinone coelenterazine is reduced to a coelenterazine derivative that is a substrate for a coelenterazine-utilizing luciferase, e.g., Oplophorus or Renilla luciferase. Conversion of the quinone coelenterazine is proportional to the number of metabolically active cells, and therefore can be measured quantitatively by monitoring light produced by luciferase reaction.
Two-fold serial dilutions of Jurkat cells were prepared in PBS, and 50 μl per well transferred to wells in 96-well plates. Compounds 40 and 50 were diluted in PBS to make 50 μM and 100 μM stocks, respectively. 10 μl of prepared compound stocks were added to the cells, and the cells were placed into 37° C., 5% CO2 incubator. Following 30 minutes incubation, the cells were removed from incubator, cooled at room temperature for 10 minutes, and 50 μl of Oplophorus luciferase detection reagent added directly to the wells. The samples were mixed, incubated at room temperature for 20 minutes, and luminescence measured.

Row | increase in luminescence relative to control samples that did not contain caspase (caspase-3 [1]) | luminescence, + caspase (caspase-3 [2]; 5.0 min) | luminescence, + caspase (caspase-3 [2]; 15.3 min) | luminescence, + caspase (caspase-3 [2]; 29.9 min) | luminescence, + caspase (caspase-3 [2]; 60.9 min) | luminescence, + caspase (caspase-3 [2]; 190.3 min) | luminescence, − caspase (caspase-3 [3]; 5.0 min) | luminescence, − caspase (caspase-3 [3]; 15.3 min) | luminescence, − caspase (caspase-3 [3]; 29.9 min) | luminescence, − caspase (caspase-3 [3]; 60.9 min) | luminescence, − caspase (caspase-3 [3]; 190.3 min) | Molecule | relationship between luminescence and cell number (Jurkat cells)
1 | one hundred-fold increase | 25,411 RLU | 36,906 RLU | 41,854 RLU | 43,370 RLU | 42,448 RLU | 26,023 RLU | 7,707 RLU | 4,013 RLU | 2,305 RLU | 1,155 RLU | z-DEVD-coelenterazine-h [Compound 21] | –
2 | – | – | – | – | – | – | – | – | – | – | – | CC1=C(C)C(=O)C(C(C)(C)CC(=O)N(C)CCN(C)C(=O)Oc2c(Cc3ccco3)nc3c(Cc4ccccc4)nc(-c4ccccc4)cn23)=C(C)C1=O [Compound 40] | linear correlation between cell number and luminescence
3 | – | – | – | – | – | – | – | – | – | – | – | CC1=C(C)C(=O)C(C(C)(C)CC(=O)N(C)CCN(C)C(=O)Oc2c(Cc3ccccc3)nc3c(Cc4ccccc4)nc(-c4ccccc4)cn23)=C(C)C1=O [Compound 50] | linear correlation between cell number and luminescence
